Here are results for one compound from paper PMC11584639 (Nature Communications, 2024).

SMILES strings stand for the structures.

The target in this test is Bruton's tyrosine kinase (BTK) (Mus musculus, UniProt P35991). The format is cell-based.
Chain of Bruton's tyrosine kinase (BTK) (P35991 2-659): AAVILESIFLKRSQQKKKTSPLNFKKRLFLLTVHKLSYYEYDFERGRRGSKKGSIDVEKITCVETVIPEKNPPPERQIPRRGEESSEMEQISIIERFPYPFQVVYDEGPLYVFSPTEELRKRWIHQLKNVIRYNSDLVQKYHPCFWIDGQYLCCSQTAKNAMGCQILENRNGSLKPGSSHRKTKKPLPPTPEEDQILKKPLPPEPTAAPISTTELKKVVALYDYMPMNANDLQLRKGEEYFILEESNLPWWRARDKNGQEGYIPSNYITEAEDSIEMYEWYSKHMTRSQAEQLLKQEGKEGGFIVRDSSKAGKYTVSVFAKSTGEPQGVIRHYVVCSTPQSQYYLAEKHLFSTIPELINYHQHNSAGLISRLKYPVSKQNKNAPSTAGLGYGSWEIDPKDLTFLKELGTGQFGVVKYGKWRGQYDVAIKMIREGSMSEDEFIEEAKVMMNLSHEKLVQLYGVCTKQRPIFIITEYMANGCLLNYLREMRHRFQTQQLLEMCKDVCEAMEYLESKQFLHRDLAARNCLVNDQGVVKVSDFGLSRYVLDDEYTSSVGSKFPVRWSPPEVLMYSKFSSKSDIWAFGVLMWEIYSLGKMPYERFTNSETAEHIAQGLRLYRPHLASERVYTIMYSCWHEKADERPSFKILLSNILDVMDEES

For `C=CC(=O)N1CCC[C@@H](n2c(=O)n(-c3ccc(Oc4ccccc4)cc3)c3c(N)nccc32)C1` [tolebrutinib], the “pBTK-to-BTK ratio by Western blot in primary mouse microglia with or without com” value is on record as “This stimulus increased BTK phosphorylation, which was blocked by tolebrutinib”.
